Test results: ChEMBL document CHEMBL1201861, “Genomics of Drug Sensitity in Cancer screening data, Wellcome Trust Sanger Institute”

How the values were obtained:
Experiment in all cases: cells
[1] = system: DSH1; format: functional, cell-based; details: Homo sapiens;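 further: growth inhibition of human DSH1 cells, measured with a cell viability readout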
Description: SANGER: Inhibition of human DSH1 cell growth in a cell viability assay.

[2] = system: ES1; format: functional, cell-based, Homo sapiens; details: Homo sapiens, ES1;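 further: growth inhibition of ES1 cells, read out with a cell viability assay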
Description: SANGER: Inhibition of human ES1 cell growth in a cell viability assay.

[3] = system: KM12; format: functional, cell-based, Homo sapiens; details: Homo sapiens, KM12;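 further: KM12 cell growth inhibition, read out with a cell viability assay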
Description: SANGER: Inhibition of human KM12 cell growth in a cell viability assay.

[4] = system: MZ1-PC; format: functional, cell-based, Homo sapiens; details: Homo sapiens, MZ1-PC;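 further: cell viability assay measuring growth inhibition of human MZ1-PC cells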
Description: SANGER: Inhibition of human MZ1-PC cell growth in a cell viability assay.

[5] = system: NCI-H526; format: functional, cell-based, Homo sapiens; details: Homo sapiens, NCI-H526;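 further: growth inhibition of the human NCI-H526 cell line, measured by a cell viability assay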
Description: SANGER: Inhibition of human NCI-H526 cell growth in a cell viability assay.

[6] = system: KG-1; format: functional, cell-based, Homo sapiens; details: Homo sapiens, KG-1;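 further: growth inhibition of KG-1 cells, read out by a cell viability assay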
Description: SANGER: Inhibition of human KG-1 cell growth in a cell viability assay.

[7] = system: KP-N-YS; format: functional, cell-based, Homo sapiens; details: Homo sapiens, KP-N-YS;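 further: cell viability assay measuring inhibition of cell line growth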
Description: SANGER: Inhibition of human KP-N-YS cell growth in a cell viability assay.

[8] = system: A253 cell line; format: functional, cell-based, Homo sapiens; details: Homo sapiens, A253;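 further: growth inhibition of A253 cells, read out with a cell viability assay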
Description: SANGER: Inhibition of human A253 cell growth in a cell viability assay.

[9] = system: PSN1; format: functional, cell-based, Homo sapiens; details: Homo sapiens, PSN1;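 further: suppression of growth of human PSN1 cells, read out by a cell viability assay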
Description: SANGER: Inhibition of human PSN1 cell growth in a cell viability assay.

[10] = system: EW-1; format: functional, cell-based, Homo sapiens; details: Homo sapiens, EW-1;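 further: growth inhibition of the human EW-1 cell line, read out by a cell viability assay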
Description: SANGER: Inhibition of human EW-1 cell growth in a cell viability assay.

[11] = system: UACC-257; format: functional, cell-based, Homo sapiens; details: Homo sapiens, UACC-257
Description: SANGER: Inhibition of human UACC-257 cell growth in a cell viability assay.

[12] = system: D-247MG; format: functional, cell-based; details: Homo sapiens
Description: SANGER: Inhibition of human D-247MG cell growth in a cell viability assay.

[13] = system: SNU1; format: functional, cell-based, Homo sapiens; details: Homo sapiens, SNU1;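 further: growth inhibition of human NCI-SNU-1 cells, measured with a cell viability assay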
Description: SANGER: Inhibition of human NCI-SNU-1 cell growth in a cell viability assay.

[14] = system: OCI-AML2; format: functional, cell-based, Homo sapiens; details: Homo sapiens, OCI-AML2;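 further: growth inhibition of OCI-AML2 cells, read out with a cell viability assay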
Description: SANGER: Inhibition of human OCI-AML2 cell growth in a cell viability assay.

[15] = system: BB65-RCC; format: functional, cell-based, Homo sapiens; details: Homo sapiens, BB65-RCC;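 further: growth inhibition of the cell line, measured with a cell viability assay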
Description: SANGER: Inhibition of human BB65-RCC cell growth in a cell viability assay.

[16] = system: RKO; format: functional, cell-based, Homo sapiens; details: Homo sapiens, RKO;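 further: growth inhibition of human RKO cells, read out with a cell viability assay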
Description: SANGER: Inhibition of human RKO cell growth in a cell viability assay.

[17] = system: LU-134-A; format: functional, cell-based, Homo sapiens; details: Homo sapiens, LU-134-A
Description: SANGER: Inhibition of human LU-134-A cell growth in a cell viability assay.

[18] = system: NCI-H1770; format: functional, cell-based, Homo sapiens; details: Homo sapiens, NCI-H1770;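 further: growth inhibition of NCI-H1770 cells determined with a viability readout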
Description: SANGER: Inhibition of human NCI-H1770 cell growth in a cell viability assay.

[19] = system: RS4-11; format: functional, cell-based, Homo sapiens; details: Homo sapiens, RS4-11;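 further: growth inhibition of RS4-11 cells, read out by a cell viability assay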
Description: SANGER: Inhibition of human RS4-11 cell growth in a cell viability assay.

[20] = system: SK-MEL-2; format: functional, cell-based, Homo sapiens; details: Homo sapiens, SK-MEL-2;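 further: growth inhibition of human SK-MEL-2 cells measured with a cell viability assay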
Description: SANGER: Inhibition of human SK-MEL-2 cell growth in a cell viability assay.

[21] = system: NOS-1; format: functional, cell-based, Homo sapiens; details: Homo sapiens, NOS-1;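 further: growth inhibition of the human NOS-1 cell line, read out with a cell viability assay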
Description: SANGER: Inhibition of human NOS-1 cell growth in a cell viability assay.

[22] = system: U-266; format: functional, cell-based, Homo sapiens; details: Homo sapiens, U-266
Description: SANGER: Inhibition of human U-266 cell growth in a cell viability assay.

[23] = system: NCI-H1581; format: functional, cell-based, Homo sapiens; details: Homo sapiens, NCI-H1581;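 further: cell growth inhibition read out by a viability assay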
Description: SANGER: Inhibition of human NCI-H1581 cell growth in a cell viability assay.

[24] = system: J-RT3-T3-5; format: functional, cell-based, Homo sapiens; details: Homo sapiens, J-RT3-T3-5;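 further: cell viability assay measuring growth inhibition of human J-RT3-T3-5 cells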
Description: SANGER: Inhibition of human J-RT3-T3-5 cell growth in a cell viability assay.

[25] = system: D-263MG; format: functional, cell-based, Homo sapiens; details: Homo sapiens, D-263MG
Description: SANGER: Inhibition of human D-263MG cell growth in a cell viability assay.

[26] = system: CGTH-W-1; format: functional, cell-based, Homo sapiens; details: Homo sapiens, CGTH-W-1;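 further: growth inhibition of human CGTH-W-1 cells measured by cell viability assay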
Description: SANGER: Inhibition of human CGTH-W-1 cell growth in a cell viability assay.

[27] = system: LS-411N; format: functional, cell-based, Homo sapiens; details: Homo sapiens, LS-411N
[28] = system: TE-11; format: functional, cell-based; details: Homo sapiens;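 further: growth inhibition of human TE-11 cells, read out by a cell viability assay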
Description: SANGER: Inhibition of human TE-11 cell growth in a cell viability assay.

[29] = system: COLO-824; format: functional, cell-based, Homo sapiens; details: Homo sapiens, COLO-824
Description: SANGER: Inhibition of human COLO-824 cell growth in a cell viability assay.

[30] = system: HT; format: functional, cell-based, Homo sapiens; details: Homo sapiens, HT
Description: SANGER: Inhibition of human HT cell growth in a cell viability assay.

[31] = system: TE-5; format: functional, cell-based, Homo sapiens; details: Homo sapiens, TE-5;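 further: inhibition of cell growth, read out by a cell viability assay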
Description: SANGER: Inhibition of human TE-5 cell growth in a cell viability assay.

[32] = system: LC-2-ad; format: functional, cell-based, Homo sapiens; details: Homo sapiens, LC-2-ad;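 further: growth inhibition of human LC-2-ad cells, read out with a cell viability assay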
Description: SANGER: Inhibition of human LC-2-ad cell growth in a cell viability assay.

[33] = system: KALS-1; format: functional, cell-based, Homo sapiens; details: Homo sapiens, KALS-1; read-out: IC50;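 further: growth inhibition of KALS-1 cells, determined with a cell viability assay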
Description: SANGER: Inhibition of human KALS-1 cell growth in a cell viability assay.

[34] = system: JVM-3; format: functional, cell-based, Homo sapiens; details: Homo sapiens, JVM-3;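 further: growth inhibition of human JVM-3 cells, read out with a cell viability assay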
Description: SANGER: Inhibition of human JVM-3 cell growth in a cell viability assay.

[35] = system: BT-474; format: functional, cell-based, Homo sapiens; details: Homo sapiens, BT-474
Description: SANGER: Inhibition of human BT-474 cell growth in a cell viability assay.

[36] = system: NCI-H1092; format: functional, cell-based, Homo sapiens; details: Homo sapiens, NCI-H1092;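 further: cell growth inhibition measured with a cell viability assay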
Description: SANGER: Inhibition of human NCI-H1092 cell growth in a cell viability assay.

[37] = system: NCI-H1648; format: functional, cell-based, Homo sapiens; details: Homo sapiens, NCI-H1648;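 further: cell viability assay measuring inhibition of NCI-H1648 cell growth, from the Sanger screening data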
Description: SANGER: Inhibition of human NCI-H1648 cell growth in a cell viability assay.

[38] = system: SW 962; format: functional, cell-based, Homo sapiens; details: Homo sapiens, SW 962;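 further: growth inhibition of human SW962 cells, read out by a cell viability assay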
Description: SANGER: Inhibition of human SW962 cell growth in a cell viability assay.

[39] = system: KNS-81-FD; format: functional, cell-based, Homo sapiens; details: Homo sapiens, KNS-81-FD;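 further: growth inhibition of KNS-81-FD cells, read out with a cell viability assay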
Description: SANGER: Inhibition of human KNS-81-FD cell growth in a cell viability assay.

[40] = system: ES3; format: functional, cell-based, Homo sapiens; details: Homo sapiens, ES3;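 further: growth inhibition of ES3 cells, read out with a cell viability assay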
Description: SANGER: Inhibition of human ES3 cell growth in a cell viability assay.

[41] = system: OMC-1; format: functional, cell-based, Homo sapiens; details: Homo sapiens, OMC-1;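 further: growth inhibition of the OMC-1 cell line, measured by a cell viability assay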
Description: SANGER: Inhibition of human OMC-1 cell growth in a cell viability assay.

[42] = system: TGBC1TKB; format: functional, cell-based, Homo sapiens; details: Homo sapiens, TGBC1TKB;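 further: growth inhibition of TGBC1TKB cells, read out by a cell viability assay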
Description: SANGER: Inhibition of human TGBC1TKB cell growth in a cell viability assay.

[43] = system: MLMA; format: functional, cell-based, Homo sapiens; details: Homo sapiens, MLMA;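 further: growth inhibition of MLMA cells (human), determined through a cell viability readout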
Description: SANGER: Inhibition of human MLMA cell growth in a cell viability assay.

[44] = system: MN-60; format: functional, cell-based, Homo sapiens; details: Homo sapiens, MN-60;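 further: growth inhibition of the MN-60 cell line, determined with a cell viability assay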
Description: SANGER: Inhibition of human MN-60 cell growth in a cell viability assay.

[45] = system: NCI-H446; format: functional, cell-based, Homo sapiens; details: Homo sapiens, NCI-H446;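 further: growth inhibition of NCI-H446 cells determined by a cell viability assay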
Description: SANGER: Inhibition of human NCI-H446 cell growth in a cell viability assay.

[46] = system: HCE-4; format: functional, cell-based; details: Homo sapiens;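 further: cell viability assay measuring inhibition of growth in the human HCE-4 cell line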
Description: SANGER: Inhibition of human HCE-4 cell growth in a cell viability assay.

[47] = system: KARPAS-299; format: functional, cell-based, Homo sapiens; details: Homo sapiens, KARPAS-299
Description: SANGER: Inhibition of human KARPAS-299 cell growth in a cell viability assay.

[48] = system: KY821; format: functional, cell-based, Homo sapiens; details: Homo sapiens, KY821;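 further: growth inhibition of human KY821 cells, read out by a cell viability assay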
Description: SANGER: Inhibition of human KY821 cell growth in a cell viability assay.

[49] = system: KU812 cell line; format: functional, cell-based, Homo sapiens; details: Homo sapiens, KU812;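 further: growth inhibition of KU812 cells, read out with a cell viability assay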
Description: SANGER: Inhibition of human KU812 cell growth in a cell viability assay.

[50] = system: EW-3; format: functional, cell-based, Homo sapiens; details: Homo sapiens, EW-3;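 further: cell viability assay read-out, IC50 reflects inhibition of growth of the EW-3 cells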
Description: SANGER: Inhibition of human EW-3 cell growth in a cell viability assay.

CS(=O)(=O)N1CCN(Cc2cc3nc(-c4cccc5[nH]ncc45)nc(N4CCOCC4)c3s2)CC1 [PICTILISIB]
IC50 [1]: > 4000 nM
IC50 [2]: 2210 nM
IC50 [3]: > 4000 nM
IC50 [4]: > 4000 nM
IC50 [5]: 1910 nM
IC50 [6]: > 4000 nM
IC50 [7]: > 4000 nM
IC50 [8]: > 4000 nM
IC50 [9]: > 4000 nM
IC50 [10]: > 4000 nM
IC50 [11]: > 4000 nM
IC50 [12]: > 4000 nM
IC50 [13]: > 4000 nM
IC50 [14]: > 4000 nM
IC50 [15]: > 4000 nM
IC50 [16]: > 4000 nM
IC50 [17]: > 4000 nM
IC50 [18]: 124 nM
IC50 [19]: 262 nM
IC50 [20]: > 4000 nM
IC50 [21]: 212 nM
IC50 [22]: > 4000 nM
IC50 [23]: > 4000 nM
IC50 [24]: > 4000 nM
IC50 [25]: 718 nM
IC50 [26]: > 4000 nM
IC50 [27]: > 4000 nM
IC50 [28]: > 4000 nM
IC50 [29]: > 4000 nM
IC50 [30]: 1130 nM
IC50 [31]: > 4000 nM
IC50 [32]: > 4000 nM
IC50 [33]: > 4000 nM
IC50 [34]: 1650 nM
IC50 [35]: > 4000 nM
IC50 [36]: > 4000 nM
IC50 [37]: 999 nM
IC50 [38]: 3730 nM
IC50 [39]: > 4000 nM
IC50 [40]: > 4000 nM
IC50 [41]: 751 nM
IC50 [42]: > 4000 nM
IC50 [43]: > 4000 nM
IC50 [44]: > 4000 nM
IC50 [45]: > 4000 nM
IC50 [46]: > 4000 nM
IC50 [47]: > 4000 nM

O=C(NCCCNc1nc(Nc2cccc(NC(=O)N3CCCC3)c2)ncc1I)c1cccs1 [BX-795]
IC50 [1]: > 5000 nM
IC50 [2]: 1750 nM
IC50 [3]: 3300 nM
IC50 [4]: > 5000 nM
IC50 [5]: > 5000 nM
IC50 [6]: 2280 nM
IC50 [7]: > 5000 nM
IC50 [8]: 4190 nM
IC50 [9]: 2790 nM
IC50 [10]: > 5000 nM
IC50 [11]: > 5000 nM
IC50 [12]: 3200 nM
IC50 [13]: 4190 nM
IC50 [14]: > 5000 nM
IC50 [15]: > 5000 nM
IC50 [16]: > 5000 nM
IC50 [17]: 3430 nM
IC50 [18]: > 5000 nM
IC50 [19]: 726 nM
IC50 [20]: 4020 nM
IC50 [21]: > 5000 nM
IC50 [22]: > 5000 nM
IC50 [23]: > 5000 nM
IC50 [24]: > 5000 nM
IC50 [25]: 2380 nM
IC50 [26]: 971 nM
IC50 [27]: > 5000 nM
IC50 [28]: 1650 nM
IC50 [29]: > 5000 nM
IC50 [30]: > 5000 nM
IC50 [31]: > 5000 nM
IC50 [32]: 1470 nM
IC50 [33]: 3310 nM
IC50 [34]: 1860 nM
IC50 [35]: > 5000 nM
IC50 [36]: > 5000 nM
IC50 [37]: > 5000 nM
IC50 [38]: 2340 nM
IC50 [39]: > 5000 nM
IC50 [40]: 2620 nM
IC50 [41]: > 5000 nM
IC50 [42]: > 5000 nM
IC50 [43]: > 5000 nM
IC50 [44]: 3590 nM
IC50 [45]: 4930 nM
IC50 [46]: > 5000 nM
IC50 [47]: > 5000 nM

CC(C)C[C@H](NC(=O)[C@H](Cc1ccccc1)NC(=O)c1cnccn1)B(O)O [BORTEZOMIB]
IC50 [1]: 0.48 nM
IC50 [48]: > 20 nM
IC50 [2]: 0.43 nM
IC50 [3]: 1.27 nM
IC50 [4]: 3.54 nM
IC50 [5]: > 20 nM
IC50 [6]: 7.94 nM
IC50 [7]: > 20 nM
IC50 [8]: 0.208 nM
IC50 [9]: 1.01 nM
IC50 [10]: 5.31 nM
IC50 [11]: 0.71 nM
IC50 [12]: 0.413 nM
IC50 [13]: 13.2 nM
IC50 [14]: > 20 nM
IC50 [15]: 0.304 nM
IC50 [16]: 1.06 nM
IC50 [17]: 7.39 nM
IC50 [18]: > 20 nM
IC50 [19]: > 20 nM
IC50 [20]: > 20 nM
IC50 [21]: 2.11 nM
IC50 [22]: 1.76 nM
IC50 [23]: 12.3 nM
IC50 [24]: > 20 nM
IC50 [25]: 0.807 nM
IC50 [26]: 3.1 nM
IC50 [27]: 1.53 nM
IC50 [29]: > 20 nM
IC50 [30]: 3.02 nM
IC50 [31]: 0.865 nM
IC50 [32]: 1.08 nM
IC50 [49]: 2.42 nM
IC50 [33]: 0.925 nM
IC50 [50]: > 20 nM
IC50 [34]: 13 nM
IC50 [35]: > 20 nM
IC50 [36]: 1.8 nM
IC50 [37]: 4.13 nM
IC50 [38]: 5.21 nM
IC50 [39]: 2.48 nM
IC50 [40]: > 20 nM
IC50 [41]: 4.18 nM
IC50 [42]: 1.71 nM
IC50 [43]: 8.85 nM
IC50 [44]: 8.14 nM
IC50 [45]: > 20 nM
IC50 [47]: 3.06 nM
